Test results published in PubChem BioAssay (NCI).
Values joined by “and” are separate entries in the source; they are usually repeats but may differ in a detail not shown here. Identical values can stand only once.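 The compound was tested at five concentrations on cells cultured in 96-well plates, with a 48-hour exposure period. GI50 is the concentration that inhibits growth by half. At the TGI there is no net growth.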

Legend:
Assay in all cases: NCI anticancer screen, dose series, 48 h
A498 renal = system: A498 renal
BT-549 breast = system: BT-549 breast
DU-145 prostate = system: DU-145 prostate
HS 578T breast = system: HS 578T breast
K-562 leukemia = system: K-562 leukemia
KM12 colon = system: KM12 colon
SF-295 CNS = system: SF-295 CNS
T-47D breast = system: T-47D breast
UACC-257 melanoma = system: UACC-257 melanoma
UO-31 renal = system: UO-31 renal

Compound	GI50 (A498 renal)	TGI (A498 renal)	GI50 (BT-549 breast)	TGI (BT-549 breast)	GI50 (DU-145 prostate)	TGI (DU-145 prostate)	GI50 (HS 578T breast)	TGI (HS 578T breast)	GI50 (K-562 leukemia)	TGI (K-562 leukemia)	GI50 (KM12 colon)	TGI (KM12 colon)	GI50 (SF-295 CNS)	TGI (SF-295 CNS)	GI50 (T-47D breast)	TGI (T-47D breast)	GI50 (UACC-257 melanoma)	TGI (UACC-257 melanoma)	GI50 (UO-31 renal)	TGI (UO-31 renal)
CC1C(C)N(C(=O)CCl)c2ccccc2N1C(=O)CCl (stereo not given)	1590 nM	3.14 µM	849 nM	2.41 µM	0.472 µM	1.8 µM	1060 nM	7.63 µM	282 nM	2.37 µM	550 nM	1.34 µM	1450 nM	3.06 µM	843 nM	2.67 µM	723 nM	3.16 µM	168 nM	0.346 µM
CCc1ccc(CCC(=O)Nc2ncc(Cc3ccc(Cl)cc3)s2)o1	208 nM	0.844 µM	2120 nM	> 100 µM	0.329 µM	> 100 µM	300 nM	27.9 µM	365 nM	> 100 µM	377 nM	> 100 µM	374 nM	> 100 µM	1480 nM	> 100 µM		> 100 µM	650 nM	> 100 µM
CC1=C2[C@@H](CC1)[C@]1(C)O[C@@](C(C)C)(C[C@H]1OC(=O)CO)[C@H]2OC(=O)C1CC1c1ccccc1 (stereo not given in full)	240 nM	0.943 µM	13600 nM	28.7 µM	14.6 µM	27.9 µM	68.1 nM	2.38 µM	12200 nM	36.5 µM	12900 nM	27.4 µM	12000 nM	24.7 µM	4160 nM	21.6 µM	17300 nM	32.4 µM	9490 nM	25.1 µM
Cc1ccccc1NC(=O)c1sc2nc(C)c(C(=O)/C=C/c3ccccc3)cc2c1N	1230 nM	4.27 µM	1330 nM	5.28 µM	1.34 µM	4.28 µM	1770 nM	> 50 µM	731 nM	> 50 µM	901 nM	2.02 µM	2430 nM	16.8 µM	975 nM	2.34 µM	1830 nM	8.71 µM	814 nM	1.53 µM
COc1ccc2c(c1)[nH]c(=O)c1c3cccc(F)c3cn21	62.5 nM	> 100 µM	21200 nM	> 100 µM	0.0696 µM	> 100 µM	29.9 nM	0.0904 µM	24 nM	12.3 µM	43.6 nM	> 100 µM	40.8 nM		42100 nM	> 100 µM	> 92900 nM	> 100 µM	59.6 nM	> 70.6 µM
COc1cc(Nc2ncc(-c3ccccc3)o2)cc(OC)c1	5570 nM	> 25 µM	> 25000 nM	> 25 µM	> 25 µM	> 25 µM	1390 nM	> 9.65 µM	> 22500 nM	> 25 µM	1590 nM	> 25 µM	> 25000 nM	> 25 µM	> 25000 nM	> 25 µM	> 25000 nM	> 25 µM	> 25000 nM	> 25 µM
COc1ccc(C/C(=C(\C)c2ccc(OCCN3CCCC3)cc2)c2ccc(OCCN3CCCC3)cc2)cc1	2500 nM	8.04 µM	1670 nM	3.25 µM	1.86 µM	3.75 µM	2170 nM	4.83 µM	1530 nM	3.6 µM	1790 nM	3.52 µM	1760 nM	3.47 µM	1690 nM	3.37 µM	1760 nM	3.31 µM	1560 nM	2.94 µM
C[C@]12CC[C@H]3[C@@H](CC=C4C[C@@H](N5CCCC5)CC[C@@]43C)[C@@H]1C/C(=C\c1cccc(OCCN3CCOCC3)c1)[C@@H]2O	3520 nM	15 µM	2330 nM	> 100 µM	1.85 µM	> 100 µM	2880 nM	18.2 µM	2340 nM	> 100 µM	5020 nM	> 100 µM	2960 nM	> 100 µM	2670 nM	> 100 µM	2550 nM	6.65 µM	3110 nM	9.97 µM
CNC(=O)c1cc(Oc2ccc(NC(=O)Nc3ccc(Cl)c(C(F)(F)F)c3)c(F)c2)ccn1	2750 nM and 1820 nM	7.25 µM and 5.73 µM	2560 nM and 2670 nM	8.64 µM and 9.09 µM	3.46 µM and 3.96 µM	> 100 µM	1590 nM and 1610 nM	16.9 µM and > 10 µM	1210 nM and 1810 nM	7.13 µM and > 10 µM	1900 nM and 1490 nM	7.86 µM and > 10 µM	2820 nM and 2290 nM	19.8 µM and > 10 µM	2080 nM and 1530 nM	9.1 µM and 7.49 µM	1970 nM and 1350 nM	6.03 µM and 5.1 µM	1530 nM and 1820 nM	4.22 µM and > 10 µM
COc1ncc(Nc2ncc([C@@H](C)N3CCN(S(C)(=O)=O)CC3)cc2-c2nc(C)nc(N)n2)cc1F	< 10 nM	0.0309 µM	21.9 nM	6.23 µM	0.183 µM	> 100 µM	24.4 nM	3.02 µM	14300 nM	> 100 µM	1330 nM	> 100 µM	28.7 nM	1.85 µM	< 10 nM	0.0648 µM	56.1 nM	> 79.4 µM	< 11.4 nM	1.89 µM
O=C(/C=C\c1ccc([N+](=O)[O-])cc1)c1ccccc(=O)c1O		9.59 µM		6.17 µM		9.44 µM		36.8 µM		> 30.9 µM		2.87 µM		14.7 µM		23.8 µM		7.85 µM		3.3 µM
CC1(C)CNc2cc(NC(=O)c3cccnc3NCc3ccncc3)ccc21	12500 nM	> 79.7 µM	25200 nM	98.2 µM	23 µM	> 100 µM	26800 nM	> 100 µM	19900 nM	> 100 µM	38000 nM	> 100 µM	24200 nM	> 100 µM	17000 nM	> 88.5 µM	28800 nM	98.2 µM	20000 nM	> 100 µM
CC(C)(C)C1CCC2c3c([nH]c4ccccc34)C3C(=O)N(c4ccc(Cl)cc4)C(=O)C3C2C1 (stereo not given)		> 10 µM		> 100 µM	> 100 µM	> 100 µM	> 100000 nM	> 100 µM	21100 nM and > 10000 nM	46.1 µM and > 10 µM	44300 nM and > 10000 nM	> 100 µM			60900 nM and > 10000 nM	> 100 µM	> 100000 nM	> 100 µM	> 100000 nM	> 100 µM
O=C(Nc1ccccc1)Nc1ccc2cc3ccc(NC(=O)Nc4ccccc4)cc3nc2c1	2740 nM	8.87 µM	1880 nM	3.69 µM	2.41 µM	7.49 µM	1530 nM	3.47 µM	363 nM	1.1 µM	1470 nM	4.07 µM	1820 nM	3.72 µM	1530 nM	3.08 µM			> 100000 nM	> 100 µM
NCCCC[C@@H]1NC(=O)[C@H](CC(=O)O)NC(=O)CNC(=O)[C@H](CCCN=C(N)N)NC(=O)[C@@H](N)CSSC[C@@H](C(=O)O)NC(=O)[C@H](CC(=O)O)NC(=O)[C@@H]2CCCN2C(=O)CNC1=O	> 100000 nM	> 100 µM	> 100000 nM	> 100 µM	> 100 µM	> 100 µM	> 100000 nM	> 100 µM	> 100000 nM	> 100 µM	> 100000 nM	> 100 µM	> 100000 nM	> 100 µM	> 100000 nM	> 100 µM	> 100000 nM	> 100 µM		
O=S(=O)(NNc1ccccc1)c1ccccc1		> 100 µM		44.2 µM		34.3 µM		> 100 µM		39.5 µM		18.1 µM		25.4 µM		51.5 µM		> 100 µM		25.7 µM
CCOC(=O)c1cc2c(cc1Cl)SC(=Nc1ccccc1)N(S(=O)(=O)c1ccc(Cl)cc1)S2(=O)=O	11400 nM	24.6 µM	14500 nM	30.4 µM	17.3 µM	31 µM	17000 nM	52.9 µM	15000 nM	38.7 µM	15100 nM	30.4 µM	19500 nM	48.6 µM	3840 nM	23.4 µM	17600 nM	40.3 µM	15900 nM	33.3 µM
Nc1ccc(C2=CC(c3ccc(Cl)cc3)N3C=CSC3=N2)cc1 (stereo not given)	6170 nM	23.8 µM	2640 nM	7 µM	5.11 µM	16.9 µM	23500 nM	> 100 µM			1950 nM	3.86 µM	13100 nM	40.4 µM	4760 nM	27.7 µM	3800 nM	17 µM	2330 nM	11 µM
COCc1c(-c2cc3cc(C)cc(OC)c3s2)c2c(N)ncnn2c1CN1CCNC(=O)C1	10.2 nM	0.0803 µM	1030 nM	17.1 µM	4.99 µM	> 100 µM	1840 nM	13.7 µM			5620 nM	77.6 µM	3050 nM	21.5 µM	4840 nM	47.4 µM	4060 nM	34.6 µM	1760 nM	11.9 µM
Cc1ccc(/C=N/Nc2nc(Nc3ccccc3)nc(-n3nc(C)cc3C)n2)cc1	7130 nM	92.4 µM	4000 nM	34.1 µM	5.45 µM	> 100 µM	5030 nM	56.5 µM	3710 nM	42.7 µM	3280 nM	13.1 µM	2740 nM	14.4 µM	2550 nM	7.41 µM	9040 nM	39.5 µM	4090 nM	19.7 µM
CN(C)c1ccc2oc(=O)c3ccccc3c2c1		> 100 µM		> 100 µM		> 100 µM		92 µM		> 100 µM				> 100 µM		> 100 µM		> 100 µM		
COc1ccc2c(c1)nc(C(=O)c1ccco1)c(C(F)(F)F)[n+]2[O-]	> 100000 nM	> 100 µM	> 100000 nM	> 100 µM	> 100 µM	> 100 µM	> 100000 nM	> 100 µM	> 100000 nM	> 100 µM	> 100000 nM	> 100 µM	> 100000 nM	> 100 µM	77400 nM	> 100 µM			> 100000 nM	> 100 µM
CCCCCCCCCCCCCC[N+](C)(C)CCCCCCCCCCCCCC	5070 nM	28 µM	2380 nM	5.47 µM	3.42 µM	12.5 µM	5650 nM	24.8 µM	2890 nM	9.8 µM			7720 nM	37.7 µM	2200 nM	7.73 µM	2490 nM	8.61 µM	4440 nM	> 100 µM
Cc1cc2c(cc1Cl)S/C(=C/C(=O)O)C(Nc1ccc3ncsc3c1)=NS2(=O)=O			7120 nM	29 µM	21.2 µM	> 97.3 µM	9810 nM	> 40.9 µM	42800 nM	> 100 µM	27500 nM	> 48 µM	> 31600 nM	> 48.1 µM	22100 nM	> 54.8 µM	> 27200 nM	> 46 µM	14800 nM	> 50.7 µM
OC(COC(c1ccccc1)(c1ccccc1)c1ccccc1)C(O)CC1SCCS1 (stereo not given)		28.4 µM		44.1 µM		41.5 µM		39.7 µM		> 100 µM		29.8 µM				58.3 µM		51.8 µM		24.5 µM
CCCCCCCCCCCCCCCCCCn1cc[n+](C)c1	1070 nM	3.09 µM	1170 nM	2.71 µM	0.801 µM and 0.87 µM	2.06 µM and 2.1 µM	335 nM	1.8 µM	385 nM and 312 nM	> 100 µM	275 nM	0.879 µM			403 nM and 433 nM	2.96 µM and 3.31 µM	1530 nM	3.91 µM	1030 nM	2.41 µM
